One compound from patent US20090247519A1, “AMINO-ETHYL-AMINO-ARYL (AEAA) COMPOUNDS AND THEIR USE” (priority 2006, published 2009) can be followed below.

This assay has as its target T1, Human full length PKD2 (Homo sapiens, UniProt Q9BZL6).
T1 construct: Human full length PKD2 at ˜100 μg/mL was purchased from Upstate Ltd; purchased Upstate Ltd 14-506
T1 sequence (Q9BZL6 1-878): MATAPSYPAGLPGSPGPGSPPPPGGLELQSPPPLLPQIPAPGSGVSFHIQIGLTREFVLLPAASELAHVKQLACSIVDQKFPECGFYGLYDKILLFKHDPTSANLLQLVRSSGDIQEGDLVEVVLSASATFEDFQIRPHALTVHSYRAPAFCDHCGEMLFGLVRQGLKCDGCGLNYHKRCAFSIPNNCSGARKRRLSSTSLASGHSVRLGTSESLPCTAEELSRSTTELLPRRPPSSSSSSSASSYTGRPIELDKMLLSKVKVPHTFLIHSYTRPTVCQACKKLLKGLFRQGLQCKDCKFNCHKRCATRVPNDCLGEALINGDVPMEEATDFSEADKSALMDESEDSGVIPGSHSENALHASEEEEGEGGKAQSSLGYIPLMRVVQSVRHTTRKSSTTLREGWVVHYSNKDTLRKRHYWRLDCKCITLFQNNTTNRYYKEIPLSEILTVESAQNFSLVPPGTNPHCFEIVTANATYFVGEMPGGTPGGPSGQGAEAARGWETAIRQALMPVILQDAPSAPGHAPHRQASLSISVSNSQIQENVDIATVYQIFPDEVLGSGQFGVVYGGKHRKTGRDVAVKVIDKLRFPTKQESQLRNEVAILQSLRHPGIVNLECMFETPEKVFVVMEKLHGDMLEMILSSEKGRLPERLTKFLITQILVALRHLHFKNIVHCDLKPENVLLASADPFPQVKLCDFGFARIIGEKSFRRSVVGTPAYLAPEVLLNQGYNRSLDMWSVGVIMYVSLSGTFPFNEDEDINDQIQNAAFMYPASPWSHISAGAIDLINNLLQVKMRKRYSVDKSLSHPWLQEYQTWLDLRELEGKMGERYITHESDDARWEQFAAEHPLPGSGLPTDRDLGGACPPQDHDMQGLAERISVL
In words: PKD2 (Human Full Length) Enzyme Activity Assay (IMAP fluorescence polarisation). The format is biochemical. As to conditions: 10 point dose-response. As for the experimental part: PKD2 (Human Full Length) Enzyme Activity Assay
Kinase Assay Reaction Buffer: This consisted of 0.22 μM filtered 25 mM HEPES and 10 mM MgCl2 pH 7.5.
Kinase: Human full length PKD2 at ˜100 μg/mL was purchased from Upstate Ltd (Product code 14-506), and obtained from aliquots stored at −70° C. It was prepared with a final concentration of […] by diluting 1:300 in Reaction Buffer (30 μL per 9 mL-5 mL per plate with an additional 4 mL dead volume) and vortexing prior to use. It is necessary to check this concentration regularly in case of enzyme degradation. […]
5 μL Kinase/Substrate in Reaction Buffer was added to ‘test’ and all ‘control’ wells of a Corning black low binding 384 well (90 μL volume) microplate to give 0.1 μg/mL and 2 μM reaction concentration respectively. […] The fluorescence polarisation of the peptide substrate was measured using an analyst (Molecular devices) microplate reader with a single read at Ex485 Em535 (Analyst settings: Z Height 5 mm, G Factor 0.95, Reads/well 1, Integration 100000 μs, Gain Sensitivity 2).
Percentage inhibition was calculated based on activity of the test sample minus the average values in the blank wells relative to the average values measured in control wells minus the average values in the blank wells.
IC50 values were calculated from 10 point dose sigmoid ‘dose-response’ curves using XIfit software (IDBS inc, USA). […]
On the technique in general: In fluorescence polarisation assays a small probe gives low polarisation when free and higher when bound to something large.

Turning to `CC[C@@H](N)CN(C)c1ccnc(-c2cc(Cl)ccc2O)n1` [XX-276, 2-{4-[((R)-2-Amino-butyl)-methyl-amino]-pyrimidin-2-yl}-4-chloro-phenol], half-maximal inhibition (IC50) required 4.1 nM. This counts as single-digit nanomolar.

Usually IC50 stands for the concentration that inhibits the measured activity by half. Higher therefore signals a need for much substance.
